# ChEMBL document CHEMBL1124916, “Neural networks applied to quantitative structure-activity relationship analysis” (1990)
# “And” between values parts separate entries of the source, which are not always exact repeats. Identical values can stand only once.
# Experiments:
# Assay type in all cases: functional
# [1] = Compound was evaluated for the Anti-fighting behavior.; design: scale not given here
# [2] = Evaluation for the Anti-pentylenetetrazole effect.; design: unit not given here
# Mus musculus [3] = species on record: Mus musculus; assay: Optimal Dose (OD) which cause maximum increase in the life span, after chronic injection at log (1/C).
# Mus musculus [4] = species on record: Mus musculus; assay: Optimal Dose (OD) which cause maximum increase in the life span, after singular injection at log (1/C).
# Mus musculus [5] = species on record: Mus musculus; assay: Minimum Effective Dose (MED) which cause 40% increase in life span, after chronic injection at log (1/C).
# Mus musculus [6] = species on record: Mus musculus; assay: Minimum Effective Dose (MED) which cause 40% increase in life span, after singular injection at log (1/C).
SMILES,Anti-fighting behaviour [1],Anti-pent effect [2],OD (Mus musculus [3]),OD (Mus musculus [4]),MED (Mus musculus [5]),MED (Mus musculus [6])
CNC(=O)CN1C(=O)CN=C(c2ccccc2)c2cc(C(F)(F)F)ccc21,3.69,5.06,,,,
CC1=C(N2CC2)C(=O)C(CC(C)OC(N)=O)=C(N2CC2)C1=O (stereo not drawn),,,5.79,5.18,6.14,5.86
CN(C)C(=O)OCCC1=C(N2CC2)C(=O)C(CCOC(=O)N(C)C)=C(N2CC2)C1=O,,,4.85,4.62,5.16,
CCN(CC)CCN1C(=O)CN=C(c2ccccc2F)c2cc(Cl)ccc21,4.29,5.38,,,,
COC1=C(N2CC2)C(=O)C(OC)=C(N2CC2)C1=O,,,5.17,4.32,5.59,4.81
CN1C(=O)CN=C(c2ccccc2)c2cc(C#N)ccc21,4.74,5.44,,,,
O=C1CN=C(c2ccccc2F)c2cc([N+](=O)[O-])ccc2N1,5.17,6,,,,
CN1C(=O)CN=C(c2ccccc2Cl)c2cc(Cl)ccc21,4.5,6.03,,,,
CC1=C(N2CC2)C(=O)C(CCCC2=C(N3CC3)C(=O)C(C)=C(N3CC3)C2=O)=C(N2CC2)C1=O,,,5.39,,5.82,
O=C1CN=C(c2ccccc2)c2cc(Cl)ccc2N1CC1CC1,4.51,4.9,,,,
CCCCSc1ccc2c(c1)C(c1ccccc1)=NCC(=O)N2,,3.79,,,,
CSc1ccc2c(c1)C(c1ccccc1)=NCC(=O)N2C,3.87,3.6,,,,
COC(COC(N)=O)C1=C(N2CC2)C(=O)C(C)=C(N2CC2)C1=O (stereo not drawn) [CARBOQUONE],,,5.66,5.03,6.41,5.81
O=C1CN=C(c2ccccc2)c2ccccc2N1,3.37,,,,,
CN1C(=O)CN=C(c2ccccc2F)c2cc([N+](=O)[O-])ccc21,5.8,6.5,,,,
CCOC(COC(N)=O)C1=C(N2CC2)C(=O)C(C)=C(N2CC2)C1=O (stereo not drawn),,,5.22,4.62,6.18,5.53
CC1=C(N2CC2)C(=O)C(COc2ccccc2)=C(N2CC2)C1=O,,,4.71,3.89,5.15,4.68
COC(CO)C1=C(N2CC2)C(=O)C(C)=C(N2CC2)C1=O (stereo not drawn),,,5.75,5.27,6.9,6.05
O=C1CN=C(c2ccccc2C(F)(F)F)c2cc(C(F)(F)F)ccc2N1,4.27,4.97,,,,
CCCC1=C(N2CC2)C(=O)C(C(COC(N)=O)OC)=C(N2CC2)C1=O (stereo not drawn),,,5.07,4.64,5.63,5.01
CCCC1=C(N2CC2)C(=O)C(CCC)=C(N2CC2)C1=O,,,4.44,4.14,4.92,4.32
CNC(=O)CN1C(=O)CN=C(c2ccccc2)c2cc([N+](=O)[O-])ccc21,4.55,5.29,,,,
CC(=O)CN1C(=O)CN=C(c2ccccc2)c2cc(Cl)ccc21,4.21,5.28,,,,
CCN(CC)CCN1C(=O)CN=C(c2ccccc2)c2cc(Cl)ccc21,3.57,5.06,,,,
CCOC(COC(N)=O)C1=C(N2CC2)C(=O)C(CC)=C(N2CC2)C1=O (stereo not drawn),,,5.24,4.64,5.76,5.4
O=C1CN=C(c2ccccc2C(F)(F)F)c2cc([N+](=O)[O-])ccc2N1,4.54,5.7,,,,

SMILES,Anti-fighting behaviour [1],Anti-pent effect [2],OD (Mus musculus [3]),OD (Mus musculus [4]),MED (Mus musculus [5]),MED (Mus musculus [6])
O=C1CN=C(c2ccccc2)c2cc([N+](=O)[O-])ccc2N1,4.75,5.6,,,,
O=C1CN=C(c2ccccc2Cl)c2cc(Cl)ccc2N1,5.18,5.85,,,,
CNC(=O)CN1C(=O)CN=C(c2ccccc2)c2cc(Cl)ccc21,3.63,5.83,,,,
O=C1C(CCO)=C(N2CC2)C(=O)C(CCO)=C1N1CC1,,,6.05,5.6,6.54,5.93
CCCC1=C(N2CC2)C(=O)C(CCOC(N)=O)=C(N2CC2)C1=O,,,5.23,4.42,5.68,4.9
C=CCN1C(=O)CN=C(c2ccccc2)c2cc(Cl)ccc21,4.49,5.35,,,,
CC(=O)C1=C(N2CC2)C(=O)C(C)=C(N2CC2)C1=O,,,,3.48,,3.94
O=C1C(c2ccccc2)=C(N2CC2)C(=O)C(c2ccccc2)=C1N1CC1,,,4.14,3.53,4.33,
C[S+]([O-])c1ccc2c(c1)C(c1ccccc1)=NCC(=O)N2 (stereo not drawn),,4.08,,,,
CN1C(=O)CN=C(c2ccccc2F)c2ccccc21,3.83,4.53,,,,
CN1C(=O)CN=C(c2ccccc2F)c2cc(F)ccc21,,3.33,,,,
O=C1CN=C(c2ccccc2Cl)c2cc([N+](=O)[O-])ccc2N1,4.2,6.3,,,,
CCCCCC1=C(N2CC2)C(=O)C(CCCCC)=C(N2CC2)C1=O,,,4.52,3.62,4.63,4.07
CC1=C(N2CC2)C(=O)C(CCCc2ccccc2)=C(N2CC2)C1=O,,,4.21,3.6,4.47,3.93
CN(C)c1ccc2c(c1)C(c1ccccc1)=NCC(=O)N2,,3.84,,,,
CN1C(=O)CN=C(c2ccccc2)c2cc([N+](=O)[O-])ccc21,5.07,5.62,,,,
O=C1CN=C(c2ccccc2)c2cc(Cl)ccc2N1CCCO,3.61,4.34,,,,
CN(C)CCCN1C(=O)CN=C(c2ccccc2)c2cc(Cl)ccc21,,3.38,,,,
O=C1CN=C(c2ccccc2)c2cc(Cl)ccc2N1,,4.65,,,,
O=C1CN=C(c2ccccc2[N+](=O)[O-])c2cc([N+](=O)[O-])ccc2N1,3.91,5.97,,,,
N#Cc1ccc2c(c1)C(c1ccccc1)=NCC(=O)N2,3.81,5.3,,,,
CN1C(=O)CN=C(c2ccccc2Cl)c2cc([N+](=O)[O-])ccc21,5.12,6.92,,,,
O=C1CN=C(c2ccccc2)c2cc(Br)ccc2N1,4.2,5.2,,,,
CN(C)CCN1C(=O)CN=C(c2ccccc2)c2cc(Cl)ccc21,3.53,4.73,,,,
CSc1ccc2c(c1)C(c1ccccc1)=NCC(=O)N2,4.15,4.15,,,,
O=C1CN=C(c2ccccc2)c2cc(C(F)(F)F)ccc2N1,4.48,5.48,,,,

SMILES,Anti-fighting behaviour [1],Anti-pent effect [2],OD (Mus musculus [3]),OD (Mus musculus [4]),MED (Mus musculus [5]),MED (Mus musculus [6])
CC(=O)OCCC1=C(N2CC2)C(=O)C(C)=C(N2CC2)C1=O,,,5.78,,5.78,
CN(C)CCN1C(=O)CN=C(c2ccccc2)c2cc([N+](=O)[O-])ccc21,4.25,4.7,,,,
CCN1C(=O)CN=C(c2ccccc2)c2cc(Cl)ccc21,4.17,4.9,,,,
CC1=C(N2CC2)C(=O)C(CCOC(=O)N(C)C)=C(N2CC2)C1=O,,,,4.84,,5.09
Cc1ccccc1C1=NCC(=O)Nc2ccc(Cl)cc21,3.45,4.57,,,,
O=C1CN=C(c2ccccc2)c2cc(Cl)ccc2N1Cc1ccccc1,3.56,4.64,,,,
O=C1CN=C(c2ccccc2Br)c2cc(Cl)ccc2N1,4.85,5.77,,,,
CCSc1ccc2c(c1)C(c1ccccc1)=NCC(=O)N2,,3.57,,,,
CCC(C)CN1C(=O)CN=C(c2ccccc2)c2cc([N+](=O)[O-])ccc21 (stereo not drawn),3.77,4.8,,,,
CN(C)c1ccc2c(c1)C(c1ccccc1)=NCC(=O)N2C,3.86,4.69,,,,
NC(=O)CN1C(=O)CN=C(c2ccccc2)c2cc(Cl)ccc21,4.21,5.07,,,,
CN(C)CCCN1C(=O)CN=C(c2ccccc2)c2cc([N+](=O)[O-])ccc21,3.61 and 3.96,5.82 and 4.28,,,,
NN1C(=O)CN=C(c2ccccc2)c2cc([N+](=O)[O-])ccc21,5.17,5.77,,,,
CN1C(=O)CN=C(c2ccccc2F)c2cc(Cl)ccc21,4.78,5.88,,,,
CCC(C)CN1C(=O)CN=C(c2ccccc2)c2cc(Cl)ccc21 (stereo not drawn),3.53,4.99,,,,
CN(C)CCCN1C(=O)CN=C(c2ccccc2F)c2cc(Cl)ccc21,3.97,4.76,,,,
CN1C(=O)CN=C(c2ccccc2C(F)(F)F)c2cc([N+](=O)[O-])ccc21,4.86,5.71,,,,
N#Cc1ccc2c(c1)C(c1ccccc1F)=NCC(=O)N2,4.75,5.63,,,,
CN(C)C(=O)CN1C(=O)CN=C(c2ccccc2)c2cc(Cl)ccc21,4.25,5.35,,,,
CN1C(=O)CN=C(c2ccccc2)c2cc(Cl)ccc21,4.45,5.31,,,,
O=C1CN=C(c2ccccc2)c2cc(F)ccc2N1,3.4,,,,,
O=C1CN=C(c2ccccc2F)c2cc(Cl)ccc2N1,4.76,6.46,,,,
CN(C)CCN1C(=O)CN=C(c2ccccc2)c2cc(C(F)(F)F)ccc21,4.27,4.76,,,,
COc1ccccc1C1=NCC(=O)Nc2ccc(Cl)cc21,3.48,4.6,,,,
C=CCN1C(=O)CN=C(c2ccccc2)c2cc(C(F)(F)F)ccc21,4.54,5.03,,,,
